Laboratory results taken from patent US11311522B1 (Cavion, Inc., priority 2018, dated 2022).

Experiment: PN001/Part I: safety and tolerability
Type: in vivo, human
Excerpt: Safety was monitored throughout by adverse events, vital signs, and repeated clinical and laboratory evaluations. […] All adverse events were mild or moderate and severity and transient.

SMILES: CC(C)c1ccc(CC(=O)N[C@H](C)c2ccc(OCC(F)(F)F)cn2)cc1 [CX-8998]
- Abnormal physical sensation (1 mg): 0 n (%)
- At least 1 adverse event (1 mg): 2 (33.3) n (%)
- Dizziness (1 mg): 0 n (%)
- Drowsiness (1 mg): 0 n (%)
- Elevated mood (1 mg): 0 n (%)
- Euphoric mood (1 mg): 0 n (%)
- Eye Disorders (1 mg): 0 n (%)
- Fatigue (1 mg): 0 n (%)
- Feeling abnormal (1 mg): 0 n (%)
- Floating feeling (1 mg): 0 n (%)
- Gastro-intestinal Disorders (1 mg): 0 n (%)
- Hangover effect (1 mg): 0 n (%)
- Headache (1 mg): 2 (33.3) n (%)
- Indifference (1 mg): 0 n (%)
- Injury, Poisoning and Procedural Complications (1 mg): 0 n (%)
- Insomnia (1 mg): 0 n (%)
- Intoxication (1 mg): 0 n (%)
- Irritability (1 mg): 0 n (%)
- Lethargy (1 mg): 0 n (%)
- Nervous System Disorders (1 mg): 2 (33.3) n (%)
- Paraesthesia (1 mg): 0 n (%)
- Paraesthesia oral (1 mg): 0 n (%)
- Paraesthesia tongue (1 mg): 0 n (%)
- Psychiatric Disorders (1 mg): 0 n (%)
- Racing thoughts (1 mg): 0 n (%)
- Relaxed (1 mg): 0 n (%)
- Sensory disturbance (1 mg): 0 n (%)
- Vision blurred (1 mg): 0 n (%)
- Visual disturbance (1 mg): 0 n (%)
- Vivid dreams (1 mg): 0 n (%)
- Abnormal physical sensation (1 mg fed): 0 n (%)
- At least 1 adverse event (1 mg fed): 0 n (%)
- Dizziness (1 mg fed): 0 n (%)
- Drowsiness (1 mg fed): 0 n (%)
- Elevated mood (1 mg fed): 0 n (%)
- Euphoric mood (1 mg fed): 0 n (%)
- Eye Disorders (1 mg fed): 0 n (%)
- Fatigue (1 mg fed): 0 n (%)
- Feeling abnormal (1 mg fed): 0 n (%)
- Floating feeling (1 mg fed): 0 n (%)
- Gastro-intestinal Disorders (1 mg fed): 0 n (%)
- Hangover effect (1 mg fed): 0 n (%)
- Headache (1 mg fed): 0 n (%)
- Indifference (1 mg fed): 0 n (%)
- Injury, Poisoning and Procedural Complications (1 mg fed): 0 n (%)
- Insomnia (1 mg fed): 0 n (%)
- Intoxication (1 mg fed): 0 n (%)
- Irritability (1 mg fed): 0 n (%)
- Lethargy (1 mg fed): 0 n (%)
- Nervous System Disorders (1 mg fed): 0 n (%)
- Paraesthesia (1 mg fed): 0 n (%)
- Paraesthesia oral (1 mg fed): 0 n (%)
- Paraesthesia tongue (1 mg fed): 0 n (%)
- Psychiatric Disorders (1 mg fed): 0 n (%)
- Racing thoughts (1 mg fed): 0 n (%)
- Relaxed (1 mg fed): 0 n (%)
- Sensory disturbance (1 mg fed): 0 n (%)
- Vision blurred (1 mg fed): 0 n (%)
- Visual disturbance (1 mg fed): 0 n (%)
- Vivid dreams (1 mg fed): 0 n (%)
- Abnormal physical sensation (3 mg): 0 n (%)
- At least 1 adverse event (3 mg): 3 (50.0) n (%)
- Dizziness (3 mg): 0 n (%)
- Drowsiness (3 mg): 0 n (%)
- Elevated mood (3 mg): 0 n (%)
- Euphoric mood (3 mg): 1 (16.7) n (%)
- Eye Disorders (3 mg): 0 n (%)
- Fatigue (3 mg): 0 n (%)
- Feeling abnormal (3 mg): 0 n (%)
- Floating feeling (3 mg): 0 n (%)
- Gastro-intestinal Disorders (3 mg): 0 n (%)
- Hangover effect (3 mg): 0 n (%)
- Headache (3 mg): 0 n (%)
- Indifference (3 mg): 0 n (%)
- Injury, Poisoning and Procedural Complications (3 mg): 0 n (%)
- Insomnia (3 mg): 0 n (%)
- Intoxication (3 mg): 0 n (%)
- Irritability (3 mg): 0 n (%)
- Lethargy (3 mg): 0 n (%)
- Nervous System Disorders (3 mg): 0 n (%)
- Paraesthesia (3 mg): 0 n (%)
- Paraesthesia oral (3 mg): 0 n (%)
- Paraesthesia tongue (3 mg): 0 n (%)
- Psychiatric Disorders (3 mg): 1 (16.7) n (%)
- Racing thoughts (3 mg): 0 n (%)
- Relaxed (3 mg): 0 n (%)
- Sensory disturbance (3 mg): 0 n (%)
- Vision blurred (3 mg): 0 n (%)
- Visual disturbance (3 mg): 0 n (%)
- Vivid dreams (3 mg): 0 n (%)
- Abnormal physical sensation (4 mg): 0 n (%)
- At least 1 adverse event (4 mg): 1 (16.7) n (%)
- Dizziness (4 mg): 0 n (%)
- Drowsiness (4 mg): 0 n (%)
- Elevated mood (4 mg): 0 n (%)
- Euphoric mood (4 mg): 0 n (%)
- Eye Disorders (4 mg): 1 (16.7) n (%)
- Fatigue (4 mg): 0 n (%)
- Feeling abnormal (4 mg): 1 (16.7) n (%)
- Floating feeling (4 mg): 0 n (%)
- Gastro-intestinal Disorders (4 mg): 0 n (%)
- Hangover effect (4 mg): 0 n (%)
- Headache (4 mg): 0 n (%)
- Indifference (4 mg): 0 n (%)
- Injury, Poisoning and Procedural Complications (4 mg): 0 n (%)
- Insomnia (4 mg): 0 n (%)
- Intoxication (4 mg): 0 n (%)
- Irritability (4 mg): 0 n (%)
- Lethargy (4 mg): 0 n (%)
- Nervous System Disorders (4 mg): 0 n (%)
- Paraesthesia (4 mg): 0 n (%)
- Paraesthesia oral (4 mg): 0 n (%)
- Paraesthesia tongue (4 mg): 0 n (%)
- Psychiatric Disorders (4 mg): 0 n (%)
- Racing thoughts (4 mg): 0 n (%)
- Relaxed (4 mg): 0 n (%)
- Sensory disturbance (4 mg): 0 n (%)
- Vision blurred (4 mg): 0 n (%)
- Visual disturbance (4 mg): 1 (16.7) n (%)
- Vivid dreams (4 mg): 0 n (%)
- Abnormal physical sensation (8 mg): 0 n (%)
- At least 1 adverse event (8 mg): 1 (16.7) n (%)
- Dizziness (8 mg): 0 n (%)
- Drowsiness (8 mg): 0 n (%)
- Elevated mood (8 mg): 0 n (%)
- Euphoric mood (8 mg): 0 n (%)
- Eye Disorders (8 mg): 1 (16.7) n (%)
- Fatigue (8 mg): 0 n (%)
- Feeling abnormal (8 mg): 0 n (%)
- Floating feeling (8 mg): 0 n (%)
- Gastro-intestinal Disorders (8 mg): 1 (16.7) n (%)
- Hangover effect (8 mg): 0 n (%)
- Headache (8 mg): 0 n (%)
- Indifference (8 mg): 0 n (%)
- Injury, Poisoning and Procedural Complications (8 mg): 0 n (%)
- Insomnia (8 mg): 0 n (%)
- Intoxication (8 mg): 0 n (%)
- Irritability (8 mg): 0 n (%)
- Lethargy (8 mg): 0 n (%)
- Nervous System Disorders (8 mg): 1 (16.7) n (%)
- Paraesthesia (8 mg): 0 n (%)
- Paraesthesia oral (8 mg): 1 (16.7) n (%)
- Paraesthesia tongue (8 mg): 0 n (%)
- Psychiatric Disorders (8 mg): 0 n (%)
- Racing thoughts (8 mg): 0 n (%)
- Relaxed (8 mg): 0 n (%)
- Sensory disturbance (8 mg): 0 n (%)
- Vision blurred (8 mg): 0 n (%)
- Visual disturbance (8 mg): 1 (16.7) n (%)
- Vivid dreams (8 mg): 0 n (%)
- Abnormal physical sensation (8 mg evening): 1 (16.7) n (%)
- At least 1 adverse event (8 mg evening): 5 (83.3) n (%)
- Dizziness (8 mg evening): 0 n (%)
- Drowsiness (8 mg evening): 1 (16.7) n (%)
- Elevated mood (8 mg evening): 2 n (%)
- Euphoric mood (8 mg evening): 2 n (%)
- Eye Disorders (8 mg evening): 1 (16.7) n (%)
- Fatigue (8 mg evening): 0 n (%)
- Feeling abnormal (8 mg evening): 1 (16.7) n (%)
- Floating feeling (8 mg evening): 0 n (%)
- Gastro-intestinal Disorders (8 mg evening): 0 n (%)
- Hangover effect (8 mg evening): 0 n (%)
- Headache (8 mg evening): 1 (16.7) n (%)
- Indifference (8 mg evening): 0 n (%)
- Injury, Poisoning and Procedural Complications (8 mg evening): 0 n (%)
- Insomnia (8 mg evening): 0 n (%)
- Intoxication (8 mg evening): 0 n (%)
- Irritability (8 mg evening): 0 n (%)
- Lethargy (8 mg evening): 0 n (%)
- Nervous System Disorders (8 mg evening): 3 (50.0) n (%)
- Paraesthesia (8 mg evening): 1 (16.7) n (%)
- Paraesthesia oral (8 mg evening): 0 n (%)
- Paraesthesia tongue (8 mg evening): 0 n (%)
- Psychiatric Disorders (8 mg evening): 4 n (%)
- Racing thoughts (8 mg evening): 1 (16.7) n (%)
- Relaxed (8 mg evening): 0 n (%)
- Sensory disturbance (8 mg evening): 0 n (%)
- Vision blurred (8 mg evening): 1 (16.7) n (%)
- Visual disturbance (8 mg evening): 0 n (%)
- Vivid dreams (8 mg evening): 1 (16.7) n (%)
